Values joined by “and” are separate entries in the source; they are usually repeats but may differ in a detail not shown here. Equal values may be shown once.
Columns and labels:
[1] = system: lymph node and spleen cells from immunized NOD mice; assay: Immunogenicity in NOD mice: proliferative response of lymph node/spleen cells of immunized mice; format: cell-based, NOD mouse
Method: FIGS. 17A and 17B are graphs showing the ability of a double substituted peptide (A^16,19) to evoke an immune response. Five female NOD mice were immunized subcutaneously with 20 mg/kg of soluble NBI-6024 on days 1, 6 and 12. On day 15, the mice were sacrificed, the inguinal lymph node cells removed and culture in the presence of varying concentrations (0-50 μM) of either NBI-6024 (FIG. 17A) or insulin B chain (9-23) peptide (FIG. 17B). The extent of T-cell proliferation was determined using ^3H-thymidine incorporation. The response is expressed as mean CPM±SEM of triplicate cultures.
Groups of 3-4 NOD mice were immunized with 100-400 μg of peptide analogues subcutaneously in mannitol acetate buffer three times within a period of 10-15 days. Following the last immunization, lymph node cells and/or spleen cells were used in a proliferation assay in which different concentrations of the immunizing peptide were cultured with the cells for 3-4 days. The last 18 hours of culture included tritiated thymidine. Cells were harvested and counted in a scintillation counter and the response is expressed as CPM±SEM.
The ability of the double substituted peptide NBI-6024 (A^16,19) to induce a cellular immune response in NOD mouse strain was next determined. Two female NOD mice were immunized with 10 mg/kg NBI-6024 either as an aqueous suspension or, as a control, emulsified in complete Freund's adjuvant (CFA). On Day 8, three days following the last injection, the mice were sacrificed, the spleen and inguinal lymph node cells were removed and pooled, and a single-cell suspension was prepared. Cells were cultured in the presence of varying concentrations (0-25 μM) of NBI-6024. The ability of these lymphoid cells to proliferate in response to NBI-6024 was measured in vitro by [^3H]-thymidine incorporation.

[2] = system: Murine NOD T cell clone PD12-2.40 response to insulin B chain (9-23) peptide; assay: Antagonism of T cell proliferation assay, clone PD12-2.40; format: cell-based, mouse (NOD); conditions: for % Inhibition: N/A = no inhibition observed
Method: (§1) Peptide analogues of B chain (9-23) containing alanine substitutions at residue 12, 13, 15 or 16 or the doubly substituted peptide at positions 16 and 19 (A^16,19; NBI-6024) were prepared as described in Example 1. T cell antagonism was detected by evaluating the ability of the peptide analogues to inhibit T cell proliferation induced by native B chain (9-23) (SEQ ID NO:2). In this assay, antigen presenting cells were first irradiated and then incubated with the competing peptide analogue and the native B chain (9-23) peptide. T cells were then added to the culture. Various concentrations of candidate peptide analogues were included in cultures which were incubated for a total of 4 days. Following this incubation period, each culture was pulsed with 1 μCi of [^3H]-thymidine for an additional 12-18 hours. Cultures were then harvested on fiberglass filters and counted as above. Mean CPM and standard error of the mean were calculated from data determined in triplicate cultures.
(§2) Within Table 4, the control peptide, NBI-5096, is an unrelated peptide from myelin basic protein. The percent inhibition was calculated as: (1−experimental cpm/insulin peptide cpm)×100%.

[3] = system: Murine NOD T cell clone PD12-2.35 response to insulin B chain (9-23) peptide; assay: Antagonism of T cell proliferation assay, clone PD12-2.35; format: cell-based, mouse (NOD); conditions: for % Inhibition: N/A = no inhibition observed
Method: as §1, §2

[4] = system: Insulin B chain (9-23) specific murine T cell clone PD12-4.9; assay: Proliferation of insulin B chain (9-23) specific murine T cell clone PD12-4.9; format: cell-based, mouse (NOD); conditions: clone PD12-4.9, 50 μM peptide, Exp. 1 and 2; for S.I. (Stimulation Index): cpm with peptide/cpm in medium alone
Method: (§3) Insulin specific NOD T cell lines were established by culturing lymphocytes isolated from islet-infiltrating populations by in vitro stimulation with either porcine insulin at 25 μg/ml and irradiated NOD islet cell in the presence of irradiated NOD spleen cells as antigen presenting cells and cytokines. To obtain the infiltrating lymphocytes the following procedures were performed (see Wegmann et al., Eur. J. Immunol. 24:1853, 1994): the pancreas from the NOD mouse was digested with collagenase and individual islets were isolated manually. The infiltrating lymphocytes were then obtained by mild trypsin digestion of the islets. The insulin specific T cell lines or clones were propagated by serial stimulation in the presence of NOD spleen cells, porcine insulin and lymphokines. Clones were obtained by limiting dilution of the B chain (9-23) specific T cell lines in the presence of the antigen presenting cells and porcine insulin at 25 μg/ml. Wells with a growing population of cells following limiting dilution were expanded in appropriate medium, and after one cycle of growth were tested for reactivity to the B chain (9-23) peptide of insulin by evaluating the proliferative response.
(§4) Insulin B chain (9-23) (SEQ ID NO:2) specific mouse (NOD) T cell clones were isolated from infiltrated islets as described in Example 2. Peptide analogues with single alanine substitutions were prepared as described in Example 1. The effect of each analogue on T cell proliferation was then evaluated using an assay performed in 96-well flat bottom microtiter plates (see Daniel et al., Eur. J. Immunol. 25:1056, 1995). Briefly 25,000 T cell clones along with 1 million irradiated NOD spleen cells were cultured in the presence of 50 μg/ml of insulin B chain 9-23 peptide or any of the alanine substituted peptides listed below in triplicate sets. The plates were incubated for a total of 72 hours in 7% carbon dioxide atmosphere with a pulse of 1 μCi/well of tritiated thymidine for the last 6-8 hours of culture. Cells were harvested on a glass fiber filter and the associated radioactivity was counted in a liquid scintillation counter. Results are expressed as mean counts per minute of triplicate wells.
(§5) NOD T cell clones were incubated in the presence of 50 μM of either the native B chain (9-23) peptide or NBI-6024. The data in Table 3 represent the mean of triplicate sample±standard error of the mean. Within Table 3, S.I. (Stimulation Index)=proliferation (cpm) in the presence of the peptide/proliferation (cpm) in medium alone.

[5] = system: Insulin B chain (9-23) specific mouse (NOD) T cell clones; assay: Proliferation of insulin-specific NOD T cell clones (summary over clones); format: cell-based; conditions: four NOD derived T cell clones; 50 μM peptide
Method: as §3, §4, §5

[6] = system: Insulin B chain (9-23) specific murine T cell clone PD12-4.1; assay: Proliferation of insulin B chain (9-23) specific murine T cell clone PD12-4.1; format: cell-based, mouse (NOD); conditions: clone PD12-4.1, 50 μM peptide, Exp. 1; for S.I. (Stimulation Index): cpm with peptide/cpm in medium alone
Method: as §3, §4, §5

[7] = T cells of Mouse #1 immunized with soluble NBI-6024, challenge peptide 1 μM, 0 μM 19,130 ± 2191
[8] = T cells of Mouse #1 immunized with soluble NBI-6024, challenge peptide 5 μM
[9] = T cells of Mouse #1 immunized with soluble NBI-6024, challenge peptide 25 μM
[10] = T cells of Mouse #2 immunized with soluble NBI-6024, challenge peptide 1 μM, 0 μM 21,588 ± 2326
[11] = T cells of Mouse #2 immunized with soluble NBI-6024, challenge peptide 5 μM
[12] = T cells of Mouse #2 immunized with soluble NBI-6024, challenge peptide 25 μM
[13] = T cells of Mouse #3 immunized with soluble NBI-6024, challenge peptide 1 μM, 0 μM 24,006 ± 2803
[14] = T cells of Mouse #3 immunized with soluble NBI-6024, challenge peptide 5 μM
[15] = T cells of Mouse #3 immunized with soluble NBI-6024, challenge peptide 25 μM
[16] = B(9-23) 5 μM + 10 μM competing peptide
[17] = B(9-23) 5 μM + 50 μM competing peptide
[18] = listed as Insulin B Chain (9-23)

Substance	CPM ± SEM [1, 7]	CPM ± SEM [1, 8]	CPM ± SEM [1, 9]	CPM ± SEM [1, 10]	CPM ± SEM [1, 11]	CPM ± SEM [1, 12]	CPM ± SEM [1, 13]	CPM ± SEM [1, 14]	CPM ± SEM [1, 15]	Proliferative response over medium only (background) [5]	Proliferative response, Mean cpm ± sem [6]	S.I. (Stimulation Index) [6]	further results
NBI-6024: insulin B chain 9-23 with alanine substitutions at positions 16 and 19 (SHLVEALALVAGERG)	48,319 ± 1918 CPM	160,673 ± 2269 CPM	268,005 ± 11198 CPM	54,519 ± 5666 CPM	126,123 ± 13851 CPM	202,707 ± 8125 CPM	64,239 ± 9493 CPM	140,836 ± 11778 CPM	240,278 ± 15015 CPM	little or no proliferation over medium only (background)	566 ± 30 cpm	2.63	Cross-reactive response to Insulin B chain (9-23) ([1]; CFA-emulsified peptide): not seen; Proliferative response to challenge with the immunizing analogue ([1]; lymph node cells from mice immunized with the analogue in CFA, dose-dependent): strong proliferative response; Cross-reactive response to Insulin B chain (9-23) ([1]; lymphocytes from mice immunized with the soluble peptide): also responded to Insulin B chain (9-23); Proliferative response to NBI-6024 challenge in vitro ([1]; spleen and inguinal lymph node cells after soluble administered peptide): strong proliferative response; CPM ± SEM [2, 16]: 6,379 ± 1,485 CPM; % Inhibition [2, 16]: 30.0%; CPM ± SEM [2, 17]: 4,305 ± 941 CPM; % Inhibition [2, 17]: 52.9%; CPM ± SEM [3, 16]: 4,441 ± 626 CPM; % Inhibition [3, 16]: 43.0%; CPM ± SEM [3, 17]: 1,389 ± 218 CPM; % Inhibition [3, 17]: 82.0%; Proliferative response, Mean cpm ± sem [4]: 12,313 ± 1,372 cpm and 6,171 ± 725 cpm; S.I. (Stimulation Index) [4]: 1.35 and 0.85
Native 9-23: native peptide, residues 9-23 of human insulin B chain (SEQ ID NO:2) (SHLVEALYLVCGERG; Residues 9-23 of human insulin B chain; listed as Homo sapiens) [reference compound]	16,870 ± 4469 CPM	21,292 ± 3216 CPM	33,317 ± 3619 CPM	17,262 ± 602 CPM	19,648 ± 2169 CPM	30,612 ± 3557 CPM	25,825 ± 3841 CPM	58,567 ± 2737 CPM	113,366 ± 515 CPM	significant response	28,593 ± 4664 cpm	132.99	CPM ± SEM ([2]; B(9-23) 5 μM alone, medium only 305 ± 13): 9,149 ± 1,062 CPM; CPM ± SEM ([3]; B(9-23) 5 μM alone, medium only 213 ± 17): 7,840 ± 528 CPM; Proliferative response, Mean cpm ± sem [4, 18]: 45,541 ± 5,222 cpm and 65,624 ± 4,979 cpm; S.I. (Stimulation Index) [4, 18]: 4.99 and 9.1
